Assay results: patent US20240351986A1, “UREA COMPOUND CONTAINING 2-HETEROAROMATIC RING SUBSTITUTION, PREPARATION METHOD THEREFOR AND USE THEREOF” (SHANGHAI INSTITUTE OF MATERIA MEDICA, CHINESE ACADEMY OF …, priority 2021, published 2024)
Like-named read-outs stand apart in the source and are kept apart here.

Tests used:
[1] = tested on: WSU-DLCL2 cells; experiment: Tumor cell proliferation inhibition in vitro (CCK-8); type: cell-based; settings: Homo sapiens, WSUDLCL2, 72 hours
Experimental: Experimental method: WSU-DLCL2 cells in good condition were seeded in a 96-well plate at 20,000/well. The test compound was gradient diluted with PBS and then added to the wells. After incubating with the cells for 72 hours, 10 μl of CCK-8 reagent was added to each well. After further incubation, the absorbance was measured at 460 nm and the 4-parameter curve fitting of Softmax Pro software was used to calculate the proliferation inhibition IC50 of the test compound.

[2] = PK parameters in mice after iv and po administration (LC-MS/MS of plasma); type: in vivo; settings: for AUC(0-t) / half-life / AUC(0-inf) / MRT inf / Cmax / Tmax: mouse, plasma; for AUC(0-inf): read-out: AUCINF_obs; for MRT inf: read-out: MRTINF_obs; for F: oral bioavailability
Experimental: The relevant pharmacokinetic parameters were calculated to examine the oral bioavailability and pharmacokinetic properties of the compound in mice.

[3] = tested on: Pfeiffer; experiment: Tumor cell proliferation inhibition in vitro; type: cell-based; settings: for IC50: Homo sapiens, Pfeiffer, proliferation
[4] = tested on: Will2; experiment: Tumor cell proliferation inhibition in vitro; type: cell-based
[5] = tested on: 422; experiment: Tumor cell proliferation inhibition in vitro; type: cell-based; settings: for IC50: proliferation
[6] = tested on: U2932; experiment: Tumor cell proliferation inhibition in vitro; type: cell-based; settings: Homo sapiens
[7] = biological target: CDK4/cyclin D1 (Homo sapiens, UniProt P11802); experiment: CDK4 enzyme activity inhibition; type: biochemical; settings: for inhibition at 0.01 µM: compound 10 nM, read-out: CDK4/Cyc D1 inhibition rate % 10 nM; for inhibition at 0.1 µM: compound 100 nM, read-out: CDK4/Cyc D1 inhibition rate % 100 nM
Experimental: (§1) CDK1,4,6,7 enzyme (CDK1/cyclin B, CDK4/cyclin D1, CDK6/cyclin D1, CDK7/cyclin H) activity was measured using a 5 μL enzyme system (50 mM HEPES, 10 mM MgCl2, 1 mM EGTA, 2 mM DTT and 0.0100 Tween 20, appropriate enzyme) either. A mixture of 2.5 μL of compound, 2.5 µL of substrate and ATP (final concentration of substrate 50 nM, final concentration of ATP 200 μM) was incubated at room temperature in the dark for 60 minutes. Then 5 μL EDTA stop solution diluted in 1× detection buffer (final concentration 6 mM) was added to each well, then an antibody diluted in 1× detection buffer (final concentration 2 nM) was added to incubate for 1 hour at room temperature in the dark, and then the corresponding enzyme activity inhibition rate or IC50 was calculated after measurement.

[8] = biological target: T1, Recombinant human CDK9/cyclin T1 (Homo sapiens, UniProt P50750); experiment: CDK9 enzyme inhibitory activity (ADP-Glo kinase assay); type: biochemical; settings: for inhibition at 0.01 µM / inhibition at 0.1 µM: CDK9 enzyme activity, average of two independent repeats; for inhibition at 0.01 µM: compound 10 nM, read-out: Inhibition rate at different concentrations (%) 10 nM; for inhibition at 0.1 µM: compound 100 nM, read-out: Inhibition rate at different concentrations (%) 100 nM; for IC50: Table 2, read-out: CDK9/CycT1 IC50
T1 construct: purchased Carna bioscience 04-110

[9] = biological target: CDK1/cyclin B (Homo sapiens, UniProt P06493); experiment: CDK1 enzyme activity inhibition; type: biochemical; settings: for inhibition at 0.01 µM: compound 10 nM, read-out: CDK1/Cyc B inhibition rate % 10 nM; for inhibition at 0.1 µM: compound 100 nM, read-out: CDK1/Cyc B inhibition rate % 100 nM
Experimental: as §1

[10] = biological target: CDK6/cyclin D1 (Homo sapiens, UniProt Q00534); experiment: CDK6 enzyme activity inhibition; type: biochemical; settings: for inhibition at 0.01 µM: compound 10 nM, read-out: CDK6/Cyc D1 inhibition rate % 10 nM; for inhibition at 0.1 µM: compound 100 nM, read-out: CDK6/Cyc D1 inhibition rate % 100 nM
Experimental: as §1

[11] = biological target: CDK7/cyclin H (Homo sapiens, UniProt P50613); experiment: CDK7 enzyme activity inhibition; type: biochemical; settings: for inhibition at 0.01 µM: compound 10 nM, read-out: CDK7/Cyc H inhibition rate % 10 nM; for inhibition at 0.1 µM: compound 100 nM, read-out: CDK7/Cyc H inhibition rate % 100 nM
Experimental: as §1

[12] = Identification of metabolites in mouse plasma; type: in vivo
[13] = tested on: phosphorylation of Pol II S2 position; experiment: Western Blot, CDK9 signaling pathway in WSU-DLCL2 cells: Pol II S2 phosphorylation; type: cell-based; settings: 24 hours
Experimental: (§2) Western Blot was used to detect the effect of compounds on the activation of CDK9 signaling pathway in WSU-DLCL2 cells.
(§3) Experimental method: An appropriate amount of WSU-DLCL2 cells were seeded in a 6-well plate. After 24 hours of exposure to the test compound, the cells were collected by centrifugation. A corresponding amount of 1× loading buffer (50 mM Tris-HCl (pH6.8), 2% SDS, 0.1% bromophenol blue, 10% glycerol) was added, the sample was boiled at 100° C. after lysis. The same volume of sample was taken. After SDS-PAGE electrophoresis, the protein on the gel was transferred to a nitrocellulose membrane. The corresponding band was cut according to the size of the protein and blocked TBST containing 5% skimmed milk powder (20 mM Tris-HCl, 150 mM NaCl, 0.1% Tween20, adjust pH to 7.4) for 1 hour, and primary antibody was incubated overnight at 4° C. TBST was used to elute excess primary antibody for 10 minutes each time for three times, the secondary antibody was incubated at room temperature for 1 hour, and then TBST was used to elute excess secondary antibody for 10 minutes each time for three times. Finally, the strips were colored and photographed using a Bio-Rad colorimeter.

[14] = tested on: Mcl-1; experiment: Western Blot, CDK9 signaling pathway in WSU-DLCL2 cells: Mcl-1 expression; type: cell-based; settings: 24 hours
Experimental: as §2, §3

[15] = original form and metabolites of compound 47 in mouse plasma, iv

Chain of CDK6/cyclin D1 (Q00534 whole entry, species assumed): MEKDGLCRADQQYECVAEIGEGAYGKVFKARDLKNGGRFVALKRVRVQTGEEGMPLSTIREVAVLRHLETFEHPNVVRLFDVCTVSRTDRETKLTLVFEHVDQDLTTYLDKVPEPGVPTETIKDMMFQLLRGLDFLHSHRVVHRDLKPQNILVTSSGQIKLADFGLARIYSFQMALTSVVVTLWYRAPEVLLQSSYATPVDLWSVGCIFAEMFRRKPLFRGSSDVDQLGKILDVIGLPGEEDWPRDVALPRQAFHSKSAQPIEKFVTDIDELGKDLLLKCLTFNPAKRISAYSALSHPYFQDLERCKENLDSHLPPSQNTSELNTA
Chain of CDK6/cyclin D1 (P24385 whole entry partner, species assumed): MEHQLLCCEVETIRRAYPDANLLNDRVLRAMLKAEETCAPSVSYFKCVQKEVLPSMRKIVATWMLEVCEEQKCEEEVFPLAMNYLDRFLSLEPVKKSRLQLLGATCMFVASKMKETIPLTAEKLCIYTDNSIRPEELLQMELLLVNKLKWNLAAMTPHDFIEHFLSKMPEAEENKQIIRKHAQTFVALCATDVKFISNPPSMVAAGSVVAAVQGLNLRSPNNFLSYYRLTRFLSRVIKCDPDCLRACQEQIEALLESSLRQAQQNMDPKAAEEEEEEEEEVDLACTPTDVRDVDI
Chain of CDK1/cyclin B (P06493 whole entry, species assumed): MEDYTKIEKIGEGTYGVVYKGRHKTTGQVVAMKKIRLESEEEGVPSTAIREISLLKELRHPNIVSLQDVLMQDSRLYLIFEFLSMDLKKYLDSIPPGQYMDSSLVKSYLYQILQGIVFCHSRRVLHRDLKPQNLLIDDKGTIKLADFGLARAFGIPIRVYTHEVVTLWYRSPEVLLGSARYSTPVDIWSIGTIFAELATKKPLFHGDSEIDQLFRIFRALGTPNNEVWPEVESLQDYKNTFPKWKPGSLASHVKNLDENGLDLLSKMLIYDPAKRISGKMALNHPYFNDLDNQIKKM
Chain of CDK1/cyclin B (P14635 whole entry partner, species assumed): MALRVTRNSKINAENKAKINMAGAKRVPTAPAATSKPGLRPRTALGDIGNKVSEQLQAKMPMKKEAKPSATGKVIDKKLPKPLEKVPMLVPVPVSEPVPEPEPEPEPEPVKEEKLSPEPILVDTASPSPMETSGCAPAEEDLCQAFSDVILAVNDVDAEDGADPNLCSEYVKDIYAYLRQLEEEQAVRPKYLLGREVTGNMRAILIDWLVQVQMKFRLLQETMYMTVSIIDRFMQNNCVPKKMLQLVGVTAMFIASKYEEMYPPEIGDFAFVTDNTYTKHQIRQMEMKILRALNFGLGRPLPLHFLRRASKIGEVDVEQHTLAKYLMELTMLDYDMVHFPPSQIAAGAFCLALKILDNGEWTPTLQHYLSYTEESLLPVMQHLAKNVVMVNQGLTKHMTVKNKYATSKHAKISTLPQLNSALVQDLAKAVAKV
Chain of CDK4/cyclin D1 (P11802 whole entry, species assumed): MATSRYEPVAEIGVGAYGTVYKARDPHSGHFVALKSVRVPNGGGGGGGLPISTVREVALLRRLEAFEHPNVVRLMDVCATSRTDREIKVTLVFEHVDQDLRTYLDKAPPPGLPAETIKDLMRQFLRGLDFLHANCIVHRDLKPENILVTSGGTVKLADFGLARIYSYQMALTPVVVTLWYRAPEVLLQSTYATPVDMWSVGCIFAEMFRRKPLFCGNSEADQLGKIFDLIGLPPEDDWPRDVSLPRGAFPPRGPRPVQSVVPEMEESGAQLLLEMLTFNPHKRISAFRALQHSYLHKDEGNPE
Chain of CDK4/cyclin D1 (P24385 whole entry partner, species assumed): as the sequence (P24385 whole entry partner, species assumed) above
T1 sequence (P50750 whole entry): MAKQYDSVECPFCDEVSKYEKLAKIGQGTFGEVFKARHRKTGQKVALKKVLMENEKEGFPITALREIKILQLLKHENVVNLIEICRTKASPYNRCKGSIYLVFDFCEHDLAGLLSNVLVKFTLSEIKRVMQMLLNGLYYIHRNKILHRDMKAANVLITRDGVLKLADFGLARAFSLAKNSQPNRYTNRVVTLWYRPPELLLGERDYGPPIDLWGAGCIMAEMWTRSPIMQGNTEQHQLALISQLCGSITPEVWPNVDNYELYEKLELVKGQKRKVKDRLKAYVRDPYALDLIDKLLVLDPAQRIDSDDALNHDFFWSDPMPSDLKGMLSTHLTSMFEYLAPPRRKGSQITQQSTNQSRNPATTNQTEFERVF
T1 sequence (O60563 whole entry partner): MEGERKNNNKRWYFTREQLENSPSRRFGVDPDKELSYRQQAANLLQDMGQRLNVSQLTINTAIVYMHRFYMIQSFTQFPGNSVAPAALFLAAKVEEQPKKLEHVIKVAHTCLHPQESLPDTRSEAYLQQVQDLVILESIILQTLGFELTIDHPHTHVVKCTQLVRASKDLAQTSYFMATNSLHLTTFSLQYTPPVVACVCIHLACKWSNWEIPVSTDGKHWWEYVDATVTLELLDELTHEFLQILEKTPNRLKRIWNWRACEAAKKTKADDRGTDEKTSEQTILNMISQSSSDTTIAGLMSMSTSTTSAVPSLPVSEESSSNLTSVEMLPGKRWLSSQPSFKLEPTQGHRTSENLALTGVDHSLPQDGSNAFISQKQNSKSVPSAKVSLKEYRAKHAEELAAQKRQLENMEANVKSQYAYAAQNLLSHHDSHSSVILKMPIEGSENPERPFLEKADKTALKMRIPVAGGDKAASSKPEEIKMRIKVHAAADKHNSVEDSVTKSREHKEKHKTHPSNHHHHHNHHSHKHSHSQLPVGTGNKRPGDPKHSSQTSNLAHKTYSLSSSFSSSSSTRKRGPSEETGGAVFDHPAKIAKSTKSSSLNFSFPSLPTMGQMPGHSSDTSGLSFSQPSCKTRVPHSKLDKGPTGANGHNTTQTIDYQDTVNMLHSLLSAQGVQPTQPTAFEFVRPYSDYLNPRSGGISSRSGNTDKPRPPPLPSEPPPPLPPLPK
Chain of CDK7/cyclin H (P50613 whole entry, species assumed): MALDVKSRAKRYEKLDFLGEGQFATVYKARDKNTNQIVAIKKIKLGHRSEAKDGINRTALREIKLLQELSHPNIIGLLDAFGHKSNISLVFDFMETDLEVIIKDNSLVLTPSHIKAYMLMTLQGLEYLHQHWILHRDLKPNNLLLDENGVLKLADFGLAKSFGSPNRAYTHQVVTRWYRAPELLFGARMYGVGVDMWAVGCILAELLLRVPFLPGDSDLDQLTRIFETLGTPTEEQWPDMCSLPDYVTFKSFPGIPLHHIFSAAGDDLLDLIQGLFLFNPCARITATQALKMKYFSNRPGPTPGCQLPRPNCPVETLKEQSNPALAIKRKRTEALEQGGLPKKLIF
Chain of CDK7/cyclin H (P51946 whole entry partner, species assumed): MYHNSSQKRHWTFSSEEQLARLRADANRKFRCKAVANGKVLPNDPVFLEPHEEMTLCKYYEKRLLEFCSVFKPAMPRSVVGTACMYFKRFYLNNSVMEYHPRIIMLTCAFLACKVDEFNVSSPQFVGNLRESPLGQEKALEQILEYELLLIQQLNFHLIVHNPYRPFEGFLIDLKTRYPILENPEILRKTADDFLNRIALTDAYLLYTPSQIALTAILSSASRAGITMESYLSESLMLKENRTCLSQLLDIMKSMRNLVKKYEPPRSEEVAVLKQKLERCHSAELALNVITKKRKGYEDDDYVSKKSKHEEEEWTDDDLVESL

Row | Compound | IC50 [1] | CL_obs ([2]; i.v.) | Vss_obs ([2]; i.v.) | AUC(0-t) ([2]; iv, 3 mg/kg) | half-life ([2]; iv, 3 mg/kg) | AUC(0-inf) ([2]; iv, 3 mg/kg, i.v.) | MRT inf ([2]; iv, 3 mg/kg, i.v.) | AUC(0-t) ([2]; po) | Cmax ([2]; po) | Tmax ([2]; po) | half-life ([2]; po, 10 mg/kg) | AUC(0-inf) ([2]; po) | MRT inf ([2]; po) | F [2] | IC50 [3] | IC50 [4] | IC50 [5] | IC50 [6] | inhibition at 0.01 µM [7] | inhibition at 0.1 µM [7] | also measured
1 | CC(=O)N[C@@H]1CCC[C@H](C(=O)Nc2cc(-c3cnn4c3CC(C)(C)C4)c(Cl)cn2)C1 [AZD4573, reference compound] | < 3 nM | 119 mL/min/kg | 0.82 L/kg | 416 ng·h/mL | 0.11 h | 419 ng·h/mL | 0.11 h | 73.2 ng·h/mL | 219 ng/mL | 0.25 h | 0.27 h | 73.6 ng·h/mL | 0.42 h | 5.28% | 2.43 nM | 5.75 nM | 1.81 nM | 2.32 nM | – | – | –
2 | COCCN[C@H]1CC[C@H](NC(=O)Nc2cc(-c3cnn4c3CC(C)(C)C4)c(Cl)cn2)CC1 [Example 46, 1-(5-chloro-4-(5,5-dimethyl-5,6-dihydro-4H-pyrrolo[1,2-b]pyrazol-3-yl)pyridin-2-yl)-3-((1r,4r)-4-((2-methoxy)amino)cyclohexyl)urea] | – | 68.6 mL/min/kg | 3.469 L/kg | 728 ng·h/mL | 2.09 h | 729 ng·h/mL | 0.84 h | 601 ng·h/mL | 382 ng/mL | 1 h | 2.38 h | 602 ng·h/mL | 1.7 h | 24.8% | – | – | – | – | 11.1% | 20.9% | plasma clearance rates compared with AZD4573 [2]: lower; inhibition at 0.01 µM [8]: 55%; inhibition at 0.1 µM [8]: 94%; IC50 [8]: 12 nM; inhibition at 0.01 µM [9]: -5.1%; inhibition at 0.1 µM [9]: 11.6%; inhibition at 0.01 µM [10]: 6.2%; inhibition at 0.1 µM [10]: 21.6%; inhibition at 0.01 µM [11]: 24%; inhibition at 0.1 µM [11]: 59%
3 | CC(=O)N[C@H]1CC[C@H](NC(=O)Nc2cc(-c3cnn4c3CC(C)(C)C4)c(Cl)cn2)CC1 [Example 47, N-((1r,4r)-4-(3-(5-chloro-4-(5,5-dimethyl-5,6-dihydro-4H-pyrrolo[1,2-b]pyrazol-3-yl)pyridin-2-yl)ureido)cyclohexyl)acetamide] | < 4.5 nM | 102 mL/min/kg | 14.318 L/kg | 480 ng·h/mL | 3.84 h | 491 ng·h/mL | 2.34 h | 98.8 ng·h/mL | 58.2 ng/mL | 0.5 h | 1.5 h | 100 ng·h/mL | 1.57 h | 6.18% | 0.052 nM | 2.16 nM | 0.089 nM | 0.932 nM | 13.6% | 41.1% | plasma clearance rates compared with AZD4573 [2]: lower; growth inhibition potency relative to positive control compound AZD4573 ([3]; Pfeiffer cells, IC50 ratio): 46.67 times; inhibition at 0.01 µM [8]: 71%; inhibition at 0.1 µM [8]: 84%; IC50 [8]: 5.1 nM; inhibition at 0.01 µM [9]: 5%; inhibition at 0.1 µM [9]: 33.4%; inhibition at 0.01 µM [10]: 4.6%; inhibition at 0.1 µM [10]: 26.7%; plasma stability compared with positive compound AZD4573 ([12]; mouse plasma, from metabolite identification): higher plasma stability; inhibition at 0.01 µM [11]: 15%; inhibition at 0.1 µM [11]: 50%; phosphorylation of Pol II S2 position ([13]; 50 nM, vs control group): significantly down-regulated; phosphorylation of Pol II S2 position ([13]; 100 nM): basically completely inhibited; Mcl-1 expression ([14]; 50 nM): significant decrease; Mcl-1 expression ([14]; 100 nM): almost completely blocked; growth inhibition potency relative to positive control compound AZD4573 ([5]; 422 cells, IC50 ratio): 20.33 times
4 | CC(=O)N[C@H]1CC[C@H](NC(=O)Nc2cc(-c3cnn4c3CC(C)(C)C4)c(Cl)cn2)CC1 [Example M0] | – | – | – | – | – | – | – | – | – | – | – | – | – | – | – | – | – | – | – | – | Area (254 nm), value in parentheses, iv [12, 15]: (532); MS Area iv [12, 15]: 62967; MS Area po ([12]; original form and metabolites of compound 47 in mouse plasma, po): 811
